Data reported in patent US20250195624A1, “USE OF SUPEROXIDE DISMUTASE FOR THE TREATMENT AND/OR PREVENTION OF ALLERGIC ASTHMA” (ISOCELL S.A.S., priority 2022, published 2025).

Key:
Format in all cases: in vivo, Balb/cj mice
[1] = test system: cell population from bronchoalveolar lavages (BAL); experiment: Inflammatory response: BAL cell population by flow cytometry, HDM allergy induced mice; conditions: asthmatic mice
Method: (§1) An allergic asthma murine model involving exposure to house dust mites was used. This model comprises a preliminary percutaneous sensitisation challenge phase of Balb/cj mice with a whole house dust mite extract (days 0, 7, 14, and 21), followed by two intranasal stimulations (days 27 and 34) which induced the symptoms of allergy-induced asthma in the test subjects. The efficacy of the Glisodin formulations was evaluated by daily administration to the mice via force feeding of 5 mg of the Glisodin formulation diluted in water, starting at 24 hours after the first intranasal sensitisation challenge and continuing for 5 consecutive days every week for 5 weeks. For comparative purposes, the same protocol was used to evaluate the effect of a combined administration of Glisodin with salbutamol, in which case the salbutamol was administered for 30 seconds at a solution concentration of 5 mg/ml as a nebulized aerosol 1 hour before each sensitisation challenge.
At the end of the study protocol on mice, bronchoalveolar lavage (BAL) were taken and the cell population analysed using flow cytometry. […] ANOVA analysis of the data using the Tukey test was carried out and a confidence interval as indicated on the charts established: *=p<0.05, ** p<0.01 and *** p<0.001, in a population of n-6 to 8 mice per group.

[2] = test system: IgE specific to house dust mites and MCP-1; experiment: Humoral response: serum HDM-specific IgE by ELISA and MCP-1 production; conditions: asthmatic mice
Source text: An allergic asthma murine model involving exposure to house dust mites was used. This model comprises a preliminary percutaneous sensitisation challenge phase of Balb/cj mice with a whole house dust mite extract (days 0, 7, 14, and 21), followed by two intranasal stimulations (days 27 and 34) which induced the symptoms of allergy-induced asthma in the test subjects. […] For comparative purposes, the same protocol was used to evaluate the effect of a combined administration of Glisodin with salbutamol, in which case the salbutamol was administered for 30 seconds at a solution concentration of 5 mg/ml as a nebulized aerosol 1 hour before each sensitisation challenge. In allergic asthma, once the antigen has been recognised, clonal selection and proliferation taken place, followed by B lymphocyte differentiation into plasmocytes, the formation of the immune complex between IgE and allergens leads to degranulation of the effecting cells and liberation of chemical mediators such as histamine and MCP-1. In order to evaluate the effect of Glisodin treatment, with respect to initiation of an asthma attack, serum levels of IgE were measured by ELISA for IgE specific to house dust mites and measurements made of the levels of production of MCP-1. […]

[3] = test system: house dust mite (HDM) allergy induced mice; experiment: Respiratory function by flexiVent in response to methacholine, HDM allergy induced mice; conditions: asthmatic mice, increasing doses of methacholine
Method: as §1
Respiratory function in the mice was analysed using the flexi Vent™ system available from SciReq and the results illustrated in FIGS. 7 and 8. […] Respiratory function was measured using the flexiVent™ system in response to increasing doses of the broncho-constrictor methacholine. […]
The efficacy of Glisodin was also analysed in combination with salbutamol, a B2-adrenergic receptor agonist having a bronchodilatory and anti-inflammatory activity, as used in the treatment of asthma attacks, the results of which are illustrated in FIG. 8. […] In the charts, CTL or control indicates naïve untreated, untreated asthmatic mice (HDM), asthmatic mice having received salbutamol treatment (Salbutamol), asthmatic mice having received salbutamol and wheat Glisodin (Salbu Wheat) or asthmatic mice having received salbutamol with melon Glisodin (Salbu Melon), all measured by flexi Vent in response to increasing doses of the bronchoconstrictor methacholine. […]

[4] = test system: house dust mite (HDM) allergy induced mice; experiment: Tissular degradation: histological analysis of lung samples (eosin and hematoxylin), scoring system; conditions: double blind scoring
Method: as §1, with “For comparative purposes, the same protocol was used to evaluate the effect of a combined administration of Glisodin with salbutamol, in which case the salbutamol was administered for 30 seconds at a solution concentration of 5 mg/ml as a nebulized aerosol 1 hour before each sensitisation challenge.” left out
In situ evaluation of inflammation, bronchoconstriction and asthma severity were carried out via histological analysis, through staining of lung samples from the various mouse groups with eosin and hematoxylin, with a population of 6 mice per group, the images being shown at a scale of 100 μm, as illustrated in FIG. 13. The degree of tissular degradation was assessed in a double blind protocol by two independent assessors using a scoring system. […]

[5] = test system: Th1, Th2 and Th17 lymphocyte; experiment: Immune response: lung cells restimulated with whole dust mite extract, flow cytometry; conditions: lungs of asthmatic mice
Method: as §1
At the end of the treatment protocol, mice lungs were harvested, ground, restimulated with whole dust mite extract and the resulting cell populations analysed using flow cytometry. The results are illustrated in FIG. 10, in which the following cell types were counted: Th1 (CD3+, CD4+, IFNγ+), Th2 (CD3+, CD4+, IL-13+) and Th17 (CD3+, CD4+, IL-17+). […]

IL-5, IL-13, IL-17 = experiment: Cytokine response in supernatant of BAL; conditions: asthmatic mice
Method: as §1
Cytokines are produced in response to antigens present at the surface of foreign bodies or by molecules considered as foreign by the immune. […] In the present case, Th2 inflammatory pathway cytokines, for example, IL-5 and IL-13, and Th17 cytokines, such as IL-17 were measured in the supernatant of BAL of the various mouse groups, and the results illustrated in FIG. 12, with application of ANOVA analysis of the data using the Tukey test leading to a confidence interval as indicated on the charts established: *=p<0.05, ** p<0.01 and *** p<0.001, in a population n=6 to 8 mice per group.

Question: How did the number of eosinophils ([1]; BAL) turn out when `CC(C)(C)NCC(O)c1ccc(O)c(CO)c1` (stereo not shown) [salbutamol] was run?
Answer: reduction

Question: What about the number of lymphocytes ([1]; BAL) of the same compound?
Answer: reduction

Question: And the “total number of cells in the BAL and lungs” value ([1]; vs untreated asthmatic mice)?
Answer: reduction

Question: What about the “level of MCP-1 produced” value [2] of the same compound?
Answer: reduced

Question: What about the “level of HDM-specific IgE” value ([2]; serum) of the same compound?
Answer: able to reduce

Question: What about the compliance [3] of the same compound?
Answer: significant effect on the improvement

Question: What about the elastance [3] of the same compound?
Answer: significant effect on the improvement

Question: What about the “resistance of the airways” value [3] of the same compound?
Answer: significant effect on the improvement

Question: What about the “severity of the asthma (degree of tissular degradation, histological score)” value [4] of the same compound?
Answer: reduction

Question: What about the Th1 lymphocyte numbers [5] of the same compound?
Answer: reduction

Question: What about the IL-5 count (IL-5, IL-13, IL-17) of the same compound?
Answer: effective in reducing

Question: And the IL-17 count (IL-5, IL-13, IL-17)?
Answer: tendency to decrease

Question: What about the “level of IL-13” value (IL-5, IL-13, IL-17) of the same compound?
Answer: neither salbutamol nor the various Glisodin formulations tested were able to reduce
